Measurements reported in patent publication US20240156971A1, “METHODS AND SORTILIN BINDING CONJUGATE COMPOUNDS FOR TARGETING CANCER STEM CELLS” (TRANSFERT PLUS, SOCIÉTÉ EN COMMANDITE, priority 2021, published 2024).
Square brackets hold non-standard residues; d marks the D form. Ends that are not written are not given here. Nle = CCCC[C@H](N)C(=O)O

Columns and labels:
hBCSCs [1] = test: Scratch (wound-healing) assay of hBCSC migration; format: cell-based, human; settings: 2 h treatment, 2 μM docetaxel or 1 μM TH1902; images at 24 and 48 h
Procedure: Inhibition of hBCSC Migration by Test Articles. Cell migration experiments were carried out using the scratch (wound-healing) assay. Cells (2.8×10^5 cells /well) were plated in 6-well plates for 24 hours and then scratched using a sterile p200 pipette tip. Cells were washed with serum-free medium to remove the detached cells, then treated for 2 hours with serum-free medium containing vehicle (DMSO), 2 μM Docetaxel, or 1 μM TH1902. Cells were rinsed with complete media and incubated for 48 hours in a fresh complete media. Images were acquired, at 0, 24 and 48 hours after scratching, with an inverted microscope.

hBCSCs [2] = test: hBCSC apoptosis by flow cytometry (annexin V-FITC/PI); format: cell-based, human; settings: 2 h treatment, 4 μM docetaxel or 2 μM TH1902; 22 h, 48 h, 72 h post-treatment
Procedure: Assessment of hBCSC Apoptosis by Flow Cytometry. AnnexinV/PI staining was performed using an Apoptosis Detection Kit (BD Pharmingen, Mississauga ON) according to the manufacturer's instructions. Briefly, hBCSCs (1.3×10^5 cells/well) were seeded for 24 hours in 12-well plates. Cells were treated in serum-deprived medium for 2 hours with vehicle (DMSO), 4 μM Docetaxel or 2 μM TH1902. Cells were washed with complete medium and incubated in fresh complete medium for 22, 48, and 72 hours. Cells were finally harvested, resuspended in a staining solution of 100 μl of 1×binding buffer containing 5 μL of annexinV-FITC and 5 μL of PI. Cells were incubated for 15 minutes at room temperature in the dark before analysis by flow cytometry. The extent of apoptosis was measured, then analyzed using BD Accuri™ C6 software.

hBCSCs [3] = test: Confocal microscopy of hBCSCs (DAPI, anti-α-tubulin); format: cell-based, human; settings: 4 μM docetaxel or 2 μM TH1902, 48 hours post-treatment; for appearance of fragmented nuclei: DAPI
Procedure: Effects of Docetaxel and TH1902 on Tubulin Polymerization. hBCSCs were grown to 80% confluence on pre-coated 18 mm microscope cover slips (Celprogen, #E36102-29-CS18), rinsed with PBS and exposed to serum-free culture medium containing vehicle (DMSO), 4 μM docetaxel or 2 μM TH1902 at 37° C. Following incubation for 2 hours the cells were rinsed with complete culture medium and incubated in fresh complete medium for 48 hours. Cells were then washed with PHEM buffer (60 mM Pipes, 25 mM HEPES, 10 mM EGTA and 2 mM MgCl2, pH 6.9) and fixed for 15 minutes with 4% paraformaldehyde, then permeabilized with 1% Triton™ X-100 in PHEM buffer for 5 minutes and washed again with PHEM buffer. The cells were blocked in PBS (2.6 mM KCl, 1.4 mM KH2PO4, 136.9 mM NaCl and 6.5 mM Na2HPO4·7H2O; pH 7.2) containing 10% normal goat serum and 0.05% Triton™ and then incubated for 1 hour with 1:2000 anti-α-Tubulin primary monoclonal antibody (clone B-5-1-2, Sigma-Aldrich; #T5168) diluted in washing buffer (PBS containing 5% normal goat serum and 0.025% Triton). Cells were washed with washing buffer and incubated for 1 hour with Alexa Fluor™ 488-conjugated goat anti-mouse secondary antibody (1:1000; Invitrogen; #A-11001), washed with diluted blocking buffer, stained with DAPI ([…] in PBS, Invitrogen; #D1306) for 3 minutes, washed again in washing blocking buffer and mounted onto slides using Prolong™ Gold antifade reagent (Invitrogen, P36934). Cell images were finally digitalized by confocal microscopy (Nikon A1) and analyzed using NIH ImageJ™ Version 1.4.21 software. The excitation and emission wavelengths used for Alexa Fluor™ 488 were 488 nm and 525 nm, respectively; the excitation and emission wavelengths used for DAPI were 404 nm and 450 nm, respectively.

hBCSC xenografts = test: Growth of hBCSC xenografts in mice; format: in vivo; settings: for growth of tumors originating from breast CSCs: weekly i.v., TH1902 at doses equivalent to 1, 1.25 or 1.5 the MTD of docetaxel, docetaxel 15 mg/kg (MTD)
From the text: (§1) In vivo Assessment of Docetaxel and TH1902 Anti-Tumor Efficacy. Tumor xenografts were established by subcutaneous inoculation of 10^3 hBCSC cells, hOvCSC and hPCSC resuspended in […] of HBSS containing 50% Matrigel™, into the right flank of NCG triple immunodeficient female mice (Charles River, Saint-Constant QC) under light isoflurane anesthesia. Three days following implantation of either hBCSC or hOvCSCS, mice commenced receiving weekly treatment by intravenous bolus injections of vehicle (10% polysorbate-80, 5% dextrose, 0.04% formic acid pH 4.3), docetaxel (15 mg/kg (the MTD for this agent) or 3.75 mg/kg (¼ MTD for this agent), dissolved in 5% dextrose, 3.3% ethanol, 1.7% Tween™-80) or TH1902 (35 mg/kg or 8.75 mg/kg) dissolved in vehicle. Note that the two TH1902 and docetaxel concentrations contain equimolar amounts of docetaxel due to the two docetaxel moieties per TH1902 molecule. Tumor growth was measured using two-dimensional measurements taken with an electronic caliper, and tumor volume was calculated according to the following formula: tumor volume (mm^3)=π/6×length×width^2. Animal weights were measured three times per week with a precision of 10 mg.

pancreatic CSCs = test: Growth of tumors originating from pancreatic CSCs in mice; format: in vivo; settings: TH1902 at doses equivalent to 1, 1.25 or 1.5 the MTD of docetaxel; docetaxel 15 mg/kg (MTD)
From the text: as §1

[4] = format: in vivo, mice
From the text: as §1

Acetyl-GVRAK(docetaxel)AGVRN(Nle)FK(docetaxel)SESY (Ac-GVRAK(docetaxel)AGVRN[Nle]FK(docetaxel)SESY) [TH1902]
recolonization of scratched region by hBCSCs (migration) (hBCSCs [1]): remained virtually barren of hBCSC for at least 48 hours
total apoptosis (hBCSCs [2]): large increase in apoptosis
cell morphology change versus vehicle-treated cells (hBCSCs [3]): visible morphology change
enlargement of cells and re-organization of the microtubules (tubulin labelling) (hBCSCs [3]): more evident
appearance of fragmented nuclei (hBCSCs [3]): fragmented nuclei in many of the cells
tumor growth curve at 8.75 mg/kg TH1902 (eq. to 1/4 of docetaxel MTD) (hBCSC xenografts; hBCSC xenografts, weekly, FIG. 8A): virtual overlap between the 15 mg/kg docetaxel curve and the 8.75 mg/kg TH1902 curve
growth of tumors originating from breast CSCs (hBCSC xenografts): significant inhibition of the growth of tumors
growth of tumors originating from pancreatic CSCs (pancreatic CSCs): significant inhibition of the growth of tumors
effect on animals' weight ([4]; FIGS. 8C, 9C and 10C): no or minimal effect

CC(=O)O[C@@]12CO[C@@H]1C[C@H](O)[C@@]1(C)C(=O)[C@H](O)C3=C(C)[C@@H](OC(=O)[C@H](O)[C@@H](NC(=O)OC(C)(C)C)c4ccccc4)C[C@@](O)([C@@H](OC(=O)c4ccccc4)[C@H]21)C3(C)C [docetaxel, reference compound]
recolonization of scratched region by hBCSCs (migration) (hBCSCs [1]): completely recolonized
total apoptosis (hBCSCs [2]): indistinguishable from that seen in control cells
cell morphology change versus vehicle-treated cells (hBCSCs [3]): visible morphology change
enlargement of cells and re-organization of the microtubules (tubulin labelling) (hBCSCs [3]): present in some
appearance of fragmented nuclei (hBCSCs [3]): not seen
growth of tumors originating from breast CSCs (hBCSC xenografts): no significant reduction of tumor growth
growth of tumors originating from pancreatic CSCs (pancreatic CSCs): no significant reduction of tumor growth
weight loss ([4]; mouse, in vivo): 5-10%
